Patent publication US10183014B2, “Ocular formulations for drug-delivery and protection of the anterior segment of the eye” (PanOptica, Inc., priority 2014, dated 2019)
Where “and” joins values, the source holds several entries; their conditions need not be identical. Equal values may be shown once. Read-outs that look alike come from different tables or passages of the source.

Tests used:
[1] = 1- to 5-day PK with topical ocular Compound-I formulations (Example 5); type: in vivo, Dutch Belted rabbits; settings: for concentration at 0.5 h / concentration at 8 h / concentration at 24 h / concentration at 4 h / concentration at 2 h / concentration at 1 h: Dutch Belted, rabbit, topical
Experimental: On day 1, Groups 1, 2, 4-6, 8, 10, 11, 13, 15, and 17 received one dose (q.d.) for either one (1) or four (4) days.
Peripheral retina and peripheral choroid samples were assayed only for Groups 1-8, 12, 14, and 16 per study protocol.

MAP4K4 (HGK) = MAP4K4 (HGK) (Homo sapiens, UniProt O95819); test: In vitro inhibition of tyrosine kinases; type: biochemical; settings: read-out: Mean % Inhibition at 1 μM Compound-I; 1 μM (568.9 ng/mL)
Chain of MAP4K4 (HGK) (O95819 whole entry, species assumed): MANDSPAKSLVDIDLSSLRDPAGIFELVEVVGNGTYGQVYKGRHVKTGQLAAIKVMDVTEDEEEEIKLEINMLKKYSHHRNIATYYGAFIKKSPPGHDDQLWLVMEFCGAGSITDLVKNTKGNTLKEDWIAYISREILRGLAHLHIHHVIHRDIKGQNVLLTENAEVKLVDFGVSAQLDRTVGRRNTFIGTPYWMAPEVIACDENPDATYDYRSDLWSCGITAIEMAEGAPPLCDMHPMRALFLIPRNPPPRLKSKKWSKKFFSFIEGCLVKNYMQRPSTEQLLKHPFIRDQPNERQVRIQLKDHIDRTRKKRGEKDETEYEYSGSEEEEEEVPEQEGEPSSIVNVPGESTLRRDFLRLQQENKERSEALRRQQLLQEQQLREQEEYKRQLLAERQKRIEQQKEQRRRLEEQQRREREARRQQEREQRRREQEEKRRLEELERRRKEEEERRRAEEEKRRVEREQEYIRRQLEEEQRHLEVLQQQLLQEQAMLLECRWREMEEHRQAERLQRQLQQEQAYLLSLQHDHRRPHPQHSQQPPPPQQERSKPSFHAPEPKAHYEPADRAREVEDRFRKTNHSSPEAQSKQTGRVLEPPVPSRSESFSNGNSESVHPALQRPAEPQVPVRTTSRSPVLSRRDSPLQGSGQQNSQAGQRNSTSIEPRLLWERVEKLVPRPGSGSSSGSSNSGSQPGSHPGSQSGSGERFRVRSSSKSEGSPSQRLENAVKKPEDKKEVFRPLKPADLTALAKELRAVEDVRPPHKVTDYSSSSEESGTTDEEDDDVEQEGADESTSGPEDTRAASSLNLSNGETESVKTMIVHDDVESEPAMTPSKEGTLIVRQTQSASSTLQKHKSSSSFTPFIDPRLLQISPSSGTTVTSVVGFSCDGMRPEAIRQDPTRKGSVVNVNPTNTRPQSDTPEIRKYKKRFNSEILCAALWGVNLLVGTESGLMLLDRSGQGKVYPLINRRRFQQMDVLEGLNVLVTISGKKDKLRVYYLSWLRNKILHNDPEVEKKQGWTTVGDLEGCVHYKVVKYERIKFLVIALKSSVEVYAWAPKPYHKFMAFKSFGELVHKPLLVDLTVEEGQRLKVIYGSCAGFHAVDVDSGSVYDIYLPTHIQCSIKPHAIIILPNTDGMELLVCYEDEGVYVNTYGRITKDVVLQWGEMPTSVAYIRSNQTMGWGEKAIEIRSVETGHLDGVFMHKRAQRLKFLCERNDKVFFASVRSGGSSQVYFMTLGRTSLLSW

PDGFRA T674I = PDGFRA T674I (Homo sapiens, UniProt P16234, T674I); test: In vitro inhibition of tyrosine kinases; type: biochemical; settings: read-out: Mean % Inhibition at 1 μM Compound-I; 1 μM (568.9 ng/mL)
Chain of PDGFRA T674I (P16234 24-1089 T674I): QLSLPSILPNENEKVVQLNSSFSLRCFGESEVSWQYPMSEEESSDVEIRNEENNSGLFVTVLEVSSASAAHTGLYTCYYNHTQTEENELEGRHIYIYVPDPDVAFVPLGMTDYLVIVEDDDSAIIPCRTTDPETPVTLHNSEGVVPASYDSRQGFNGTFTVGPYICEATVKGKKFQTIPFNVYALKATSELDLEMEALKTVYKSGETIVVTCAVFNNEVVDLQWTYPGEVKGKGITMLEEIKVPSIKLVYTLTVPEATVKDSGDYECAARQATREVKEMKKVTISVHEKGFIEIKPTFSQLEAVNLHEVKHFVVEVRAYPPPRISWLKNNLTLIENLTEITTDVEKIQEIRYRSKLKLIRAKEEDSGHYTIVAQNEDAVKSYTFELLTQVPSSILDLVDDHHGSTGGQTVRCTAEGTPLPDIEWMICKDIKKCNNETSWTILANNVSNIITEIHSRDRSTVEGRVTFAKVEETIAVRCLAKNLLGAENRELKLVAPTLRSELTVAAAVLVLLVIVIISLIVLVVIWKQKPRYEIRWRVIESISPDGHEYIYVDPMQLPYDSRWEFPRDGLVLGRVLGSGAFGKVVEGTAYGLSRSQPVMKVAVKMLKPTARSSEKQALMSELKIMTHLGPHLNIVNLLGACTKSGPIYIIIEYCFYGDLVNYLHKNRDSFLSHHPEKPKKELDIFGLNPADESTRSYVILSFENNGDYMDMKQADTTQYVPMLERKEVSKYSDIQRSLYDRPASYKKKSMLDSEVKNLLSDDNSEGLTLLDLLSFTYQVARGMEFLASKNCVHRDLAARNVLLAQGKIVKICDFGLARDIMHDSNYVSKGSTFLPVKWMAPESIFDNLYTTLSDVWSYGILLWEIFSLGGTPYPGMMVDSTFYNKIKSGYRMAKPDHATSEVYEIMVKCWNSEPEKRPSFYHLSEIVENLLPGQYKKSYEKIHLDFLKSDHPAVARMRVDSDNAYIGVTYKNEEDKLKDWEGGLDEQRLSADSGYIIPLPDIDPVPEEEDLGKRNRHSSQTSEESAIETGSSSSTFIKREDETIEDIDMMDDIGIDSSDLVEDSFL

[2] = Particle size distribution by laser diffraction light scattering; type: physicochemical; settings: API form HCl salt
Experimental: Particle size distribution can be analyzed using laser diffraction light scattering, e.g., with a Horiba LA-950 V2. Generic assumptions are made in setting conditions and the refractive index value. The distributions are volume based. Sample density is adjusted to a generic range of percent transmission on the blue LED light source. A small sample cell (filled with water) can be used rather than the flow through cell, to minimize sample quantity.
Particle size distribution was analyzed using laser diffraction light scattering with a Horiba LA-950 V2. Generic assumptions were made in setting conditions and the refractive index value. The distributions were volume based. Sample density was adjusted to a generic range of percent transmission on the blue LED light source. A small sample cell (filled with water) was used rather than the flow through cell, to minimize sample quantity.

ABL1 Y253F = ABL1 Y253F (Homo sapiens, UniProt P00519, Y253F); test: In vitro inhibition of tyrosine kinases; type: biochemical; settings: read-out: Mean % Inhibition at 1 μM Compound-I; 1 μM (568.9 ng/mL)
pathologic angiogenesis [3] = test: Pathologic angiogenesis, rat growth plate model, systemic administration; type: in vivo
FLT4 (VEGFR-3) = FLT4 (VEGFR-3) (Homo sapiens, UniProt P35916); test: In vitro inhibition of tyrosine kinases; type: biochemical; settings: read-out: Mean % Inhibition at 1 μM Compound-I; 1 μM (568.9 ng/mL)
Chain of FLT4 (VEGFR-3) (P35916 25-1363, species assumed): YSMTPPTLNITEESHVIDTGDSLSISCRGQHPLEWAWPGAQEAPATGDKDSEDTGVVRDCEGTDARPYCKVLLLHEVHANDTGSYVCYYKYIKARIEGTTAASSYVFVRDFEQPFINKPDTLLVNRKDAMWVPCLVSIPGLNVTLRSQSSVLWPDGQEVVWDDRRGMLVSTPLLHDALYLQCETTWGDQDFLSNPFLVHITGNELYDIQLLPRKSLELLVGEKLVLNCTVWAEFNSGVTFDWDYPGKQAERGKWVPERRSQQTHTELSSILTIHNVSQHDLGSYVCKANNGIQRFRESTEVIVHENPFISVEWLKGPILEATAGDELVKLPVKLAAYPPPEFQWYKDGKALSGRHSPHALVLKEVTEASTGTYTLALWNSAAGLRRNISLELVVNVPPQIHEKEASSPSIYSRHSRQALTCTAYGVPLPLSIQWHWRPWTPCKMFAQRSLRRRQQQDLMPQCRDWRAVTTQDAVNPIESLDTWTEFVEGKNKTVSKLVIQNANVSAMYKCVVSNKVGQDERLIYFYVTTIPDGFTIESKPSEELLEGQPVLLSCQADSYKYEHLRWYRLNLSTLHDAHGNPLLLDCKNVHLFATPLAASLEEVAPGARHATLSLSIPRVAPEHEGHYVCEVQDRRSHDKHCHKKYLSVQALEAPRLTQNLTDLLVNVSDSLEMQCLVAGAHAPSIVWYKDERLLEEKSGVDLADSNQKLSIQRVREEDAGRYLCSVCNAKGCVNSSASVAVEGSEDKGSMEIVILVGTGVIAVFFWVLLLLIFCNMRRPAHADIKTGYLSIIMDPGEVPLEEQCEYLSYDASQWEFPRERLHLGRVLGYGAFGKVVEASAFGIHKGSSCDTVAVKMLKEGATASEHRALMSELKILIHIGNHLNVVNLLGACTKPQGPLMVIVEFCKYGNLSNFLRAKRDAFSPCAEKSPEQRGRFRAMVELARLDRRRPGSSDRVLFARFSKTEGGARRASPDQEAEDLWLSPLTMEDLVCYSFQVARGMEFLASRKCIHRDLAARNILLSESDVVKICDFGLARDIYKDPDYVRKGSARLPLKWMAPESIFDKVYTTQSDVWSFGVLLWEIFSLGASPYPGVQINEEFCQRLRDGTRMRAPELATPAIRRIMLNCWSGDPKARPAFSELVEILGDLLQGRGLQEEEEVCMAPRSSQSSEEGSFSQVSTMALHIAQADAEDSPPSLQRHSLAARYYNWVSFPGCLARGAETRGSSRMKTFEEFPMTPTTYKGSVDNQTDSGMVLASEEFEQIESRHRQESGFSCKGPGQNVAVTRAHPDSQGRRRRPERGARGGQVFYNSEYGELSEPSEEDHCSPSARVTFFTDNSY

HUVECs = test: Inhibition of VEGF-stimulated mitogenesis in HUVECs; type: cell-based; settings: Homo sapiens, HUVEC
pathologic angiogenesis [4] = test: Pathologic angiogenesis, murine cornea model, systemic administration; type: in vivo
[5] = Ocular toxicology studies (tolerability and ocular tissue concentrations); type: in vivo, Dutch-Belted rabbits; settings: for concentration at 29 days: Dutch-Belted, topical, 0.3 %, 0.3% Ophthalmic Gel Drop (with and without benzylalkonium chloride), twice daily
From the text: Retinal function was normal in all test article and vehicle treated groups during full-field electroretinograms performed in rabbits.

human tumor xenographs = test: Growth of human tumor xenographs in athymic mice; type: in vivo; settings: systemic administration
AURKB (Aurora B) = AURKB (Aurora B) (Homo sapiens, UniProt Q96GD4); test: In vitro inhibition of tyrosine kinases; type: biochemical; settings: read-out: Mean % Inhibition at 1 μM Compound-I; 1 μM (568.9 ng/mL)
Chain of AURKB (Aurora B) (Q96GD4 whole entry, species assumed): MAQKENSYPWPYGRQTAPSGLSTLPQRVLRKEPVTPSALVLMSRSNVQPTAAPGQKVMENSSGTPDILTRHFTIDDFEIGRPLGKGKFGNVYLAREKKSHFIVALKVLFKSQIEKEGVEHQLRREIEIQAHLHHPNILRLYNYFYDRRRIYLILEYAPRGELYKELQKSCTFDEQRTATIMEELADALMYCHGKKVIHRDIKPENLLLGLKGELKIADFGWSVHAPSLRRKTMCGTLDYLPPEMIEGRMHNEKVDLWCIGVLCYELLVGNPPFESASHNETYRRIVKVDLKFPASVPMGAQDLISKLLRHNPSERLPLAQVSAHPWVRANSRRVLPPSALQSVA

[6] = Groups 1, 5: one dose day 1, 0.5 hr post-dose
[7] = Groups 1, 5: one dose day 1, 24 hr post-dose
[8] = excipient HPMC, roller speed low, media size 3 mm, particles under storage 21 days, RT
[9] = excipient Pluronic F-127, roller speed high, media size 0.8 mm
[10] = excipient Tyloxapol, milling not given
[11] = excipient Tyloxapol, roller speed high, media size 0.8 mm, particles under storage 6 days, 40° C.
[12] = excipient Tyloxapol, roller speed low, media size 3 mm

For `Cl.NC(=O)c1c(OCc2c(F)cc(Br)cc2F)nsc1NC(=O)NCCCCN1CCCC1` [Compound-I, 3-[(4-bromo-2,6-difluorophenyl)methoxy]-5-[[[[4-(1-pyrrolidinyl)butyl]amino]carbonyl]amino]-4-isothiazolecarboxamide hydrochloride], the concentration at 0.5 h ([1]; aqueous humor, 30 μL (bilateral), Groups 1, 5: one dose day 1, 0.5 hr post-dose, read-out: Average Concentration Aqueous Humor) was 1.62 nM, the concentration at 8 h ([1]; aqueous humor, 30 μL (bilateral), Groups 1, 5: one dose day 1, 8 hr post-dose, read-out: Average Concentration Aqueous Humor) was 6.67 nM and the concentration at 24 h ([1]; aqueous humor, 30 μL (bilateral), Groups 1, 5: one dose day 1, 24 hr post-dose, read-out: Average Concentration Aqueous Humor) was 3.03 nM. It also gave a concentration at 4 h ([1]; aqueous humor, 30 μL bilateral (each eye), Group 5: one dose day 1, 4 hr post-dose, read-out: Average Concentration Aqueous Humor) of 9.11 nM, a concentration at 2 h ([1]; aqueous humor, 30 μL bilateral (each eye), Groups 1, 5: one dose day 1, 2 hr post-dose, read-out: Average Concentration Aqueous Humor) of 8.62 nM and a concentration at 1 h ([1]; aqueous humor, 30 μL bilateral, Groups 1, 5: one dose day 1, 1 hr post-dose, read-out: Average Concentration Aqueous Humor) of 1.08 nM. It also gave a concentration at 1 h ([1]; central choroid, 30 μL (bilateral), q.d. groups (2,4,6,8,10,11,13,15,17), 4 days, 1 hr after day 5 morning dose, read-out: Average Concentration Central Choroid) of 196 nM, a concentration at 24 h ([1]; central choroid, 30 μL (bilateral, each eye), q.d. groups (2,6,8,11,13), 4 days, 24 hr after day 5 morning dose, read-out: Average Concentration Central Choroid) of 319 nM and a concentration at 24 h ([1]; central choroid, 30 μL per eye (bilateral), b.i.d. groups (3,7), 4 days, 24 hr after day 5 morning dose, read-out: Average Concentration Central Choroid) of 283 nM. It also gave a concentration at 24 h ([1]; central choroid, 30 μL, q.d. groups (2,6,8,11,13), 4 days, 24 hr after day 5 morning dose, read-out: Average Concentration Central Choroid) of 218 nM, a concentration at 8 h ([1]; central retina, 30 μL (bilateral), Groups 1, 5: one dose day 1, 8 hr post-dose, read-out: Average Concentration Central Retina) of 30.4 nM and a concentration at 1 h ([1]; central retina, 30 μL (bilateral), q.d. groups (2,4,6,8,10,11,13,15,17), 4 days, 1 hr after day 5 morning dose, read-out: Average Concentration Central Retina) of 36.3 nM. For the same compound, the concentration at 24 h ([1]; central retina, 30 μL (bilateral), q.d. groups (2,6,8,11,13), 4 days, 24 hr after day 5 morning dose, read-out: Average Concentration Central Retina) was 24.1 nM, the concentration at 4 h ([1]; central retina, 30 μL bilateral (each eye), Group 5: one dose day 1, 4 hr post-dose, read-out: Average Concentration Central Retina) was 29.9 nM and the concentration at 2 h ([1]; central retina, 30 μL bilateral (each eye), Groups 1, 5: one dose day 1, 2 hr post-dose, read-out: Average Concentration Central Retina) was 35.4 nM. For the same compound, the concentration at 24 h ([1]; central retina, 30 μL per eye (bilateral), b.i.d. groups (3,7), 4 days, 24 hr after day 5 morning dose, read-out: Average Concentration Central Retina) was 29.2 nM, the concentration at 8 h ([1]; central retina, 30 μL per eye (bilateral), q.d. groups (2,6), 4 days, 8 hr after day 5 morning dose, read-out: Average Concentration Central Retina) was 38 nM and the concentration at 24 h ([1]; central retina, 30 μL per eye (bilateral), q.d. groups (2,6,8,11,13), 4 days, 24 hr after day 5 morning dose, read-out: Average Concentration Central Retina) was 24.6 nM. For the same compound, the concentration at 1 h ([1]; central retina, 30 μL, b.i.d. groups (3,7,9,12,14,16), 4 days, 1 hr after day 5 morning dose, read-out: Average Concentration Central Retina) was 40.7 nM, the concentration at 4 h ([1]; cornea, 30 μL (bilateral), Group 5: one dose day 1, 4 hr post-dose, read-out: Average Concentration Cornea) was 14100 nM and the concentration at 2 h ([1]; cornea, 30 μL bilateral (each eye), Groups 1, 5: one dose day 1, 2 hr post-dose, read-out: Average Concentration Cornea) was 28100 nM. The concentration at 1 h ([1]; cornea, 30 μL bilateral, Groups 1, 5: one dose day 1, 1 hr post-dose, read-out: Average Concentration Cornea) was 16900 nM, the concentration at 4 h ([1]; peripheral choroid, 30 μL (bilateral), Group 5: one dose day 1, 4 hr post-dose, read-out: Average Concentration Peripheral Choroid) was 77.5 nM and the concentration at 8 h ([1]; peripheral choroid, 30 μL (bilateral), Groups 1, 5: one dose day 1, 8 hr post-dose, read-out: Average Concentration Peripheral Choroid) was 87.4 nM. The concentration at 24 h ([1]; peripheral choroid, 30 μL (bilateral), Groups 1, 5: one dose day 1, 24 hr post-dose, read-out: Average Concentration Peripheral Choroid) was 88 nM, the concentration at 1 h ([1]; peripheral choroid, 30 μL bilateral, Groups 1, 5: one dose day 1, 1 hr post-dose, read-out: Average Concentration Peripheral Choroid) was 47.3 nM and the concentration at 24 h ([1]; peripheral choroid, 30 μL per eye (bilateral), b.i.d. groups (3,7), 4 days, 24 hr after day 5 morning dose, read-out: Average Concentration Peripheral Choroid) was 892 nM. The concentration at 1 h ([1]; peripheral choroid, 30 μL per eye (bilateral), b.i.d. groups (3,7,12,14,16), 4 days, 1 hr after day 5 morning dose, read-out: Average Concentration Peripheral Choroid) was 765 nM, the concentration at 8 h ([1]; peripheral retina, 30 μL (bilateral), Groups 1, 5: one dose day 1, 8 hr post-dose, read-out: Average Concentration Peripheral Retina) was 33.3 nM and the concentration at 24 h ([1]; peripheral retina, 30 μL (bilateral), Groups 1, 5: one dose day 1, 24 hr post-dose, read-out: Average Concentration Peripheral Retina) was 15.1 nM. For the same compound, the concentration at 1 h ([1]; peripheral retina, 30 μL (bilateral), q.d. groups (2,4,6,8), 4 days, 1 hr after day 5 morning dose, read-out: Average Concentration Peripheral Retina) was 96.1 nM, the concentration at 4 h ([1]; peripheral retina, 30 μL bilateral (each eye), Group 5: one dose day 1, 4 hr post-dose, read-out: Average Concentration Peripheral Retina) was 31.2 nM and the concentration at 0.5 h ([1]; peripheral retina, 30 μL bilateral, Groups 1, 5: one dose day 1, 0.5 hr post-dose, read-out: Average Concentration Peripheral Retina) was 22.7 nM. The concentration at 8 h ([1]; peripheral retina, 30 μL per eye (bilateral), q.d. groups (2,6), 4 days, 8 hr after day 5 morning dose, read-out: Average Concentration Peripheral Retina) was 50.8 nM, the concentration at 1 h ([1]; peripheral retina, 30 μL, b.i.d. groups (3,7,12,14,16), 4 days, 1 hr after day 5 morning dose, read-out: Average Concentration Peripheral Retina) was 108 nM and the “Average Concentration Central Choroid” value ([1]; Group 5: one dose day 1, 4 hr post-dose) was “<LLOQ”. For the same compound, the “Average Concentration Central Choroid” value [1, 6] was “<LLOQ”, the “Average Concentration Peripheral Choroid” value [1, 6] was “<LLOQ” and the “Average Concentration Central Choroid” value ([1]; Groups 1, 5: one dose day 1, 1 hr post-dose) was “<LLOQ”. The “Average Concentration Central Choroid” value ([1]; Groups 1, 5: one dose day 1, 2 hr post-dose) was “<LLOQ”, the “Average Concentration Central Choroid” value ([1]; Groups 1, 5: one dose day 1, 8 hr post-dose) was “<LLOQ” and the “Average Concentration Central Choroid” value [1, 7] was “<LLOQ”. For the same compound, the “Average Concentration Central Retina” value [1, 7] was “<LLOQ”, the inhibition at 1 µM (MAP4K4 (HGK)) was 100% and the inhibition at 1 µM (PDGFRA T674I) was 86%. The “PSD (Particle Size Distribution) Mean” value [2, 8] was about 450 nm, the “PSD (Particle Size Distribution) Median” value [2, 8] was about 170 nm and the “PSD (Particle Size Distribution) Mean” value [2, 9] was about 100 nm. For the same compound, the “PSD (Particle Size Distribution) Median” value [2, 9] was about 100 nm, the “PSD (Particle Size Distribution) Mean” value [2, 10] was about 110 nm and the “PSD (Particle Size Distribution) Median” value [2, 10] was about 110 nm. The “PSD (Particle Size Distribution) Mean” value [2, 11] was about 120 nm, the “PSD (Particle Size Distribution) Median” value [2, 11] was about 110 nm and the “PSD (Particle Size Distribution) Mean” value [2, 12] was about 8500 nm. The “PSD (Particle Size Distribution) Median” value [2, 12] was about 6700 nm, the inhibition at 1 µM (ABL1 Y253F) was 93% and the Pathologic angiogenesis (pathologic angiogenesis [3]) was “inhibit”. For the same compound, the inhibition at 1 µM (FLT4 (VEGFR-3)) was 95%, the IC50 (HUVECs) was 14.1 nM and 0.008 µg/mL and the Pathologic angiogenesis (pathologic angiogenesis [4]) was “inhibit”. For the same compound, the “Microscopic evaluation of eyes” value ([5]; 0.3% w/v Tris-based suspension twice daily for 30 days) was “considered normal”, the “Findings attributed to test-article or vehicle” value ([5]; 0.6% cyclodextrin-based solution, 30 days topical ocular dosing) was “no untoward findings” and the concentration at 29 days ([5]; rabbit, central choroid, read-out: Central Choroid [Compound I]) was 340 to 496 nM. The concentration at 29 days ([5]; rabbit, cornea, read-out: Cornea [Compound I]) was 236000 to 260000 nM, the “Retinal function (full-field electroretinograms)” value ([5]; all test article groups) was “normal” and the “Cornea concentration above which ocular side effects were more consistently observed” value ([5]; discomfort, inflammation, corneal thinning) was “exceeded 100 μM”. For the same compound, the Corneal tissue exposure ([5]; ophthalmic gel drops, topical ocular dosing) was at least 100 µM, the “Corneal concentration, Gel Drop compared to Tris-based suspensions” value ([5]; rabbit, in vivo) was “fifty-fold to hundred-fold higher” and the “Corneal concentration, Gel Drop compared to cyclodextrin based solution” value ([5]; rabbit, in vivo) was “five-fold to fifteen-fold higher”. For the same compound, the “Ocular tolerability (clinical ophthalmic examinations)” value ([5]; rabbit, in vivo) was “well tolerated”, the “Reduction of corneal exposure versus Gel Drop” value ([5]; suspension-based and cyclodextrin formulations) was 10-100 × and the “Reduction in corneal concentrations, cyclodextrin-based solution versus equimolar Gel Drop” value ([5]; topical ocular dosing 1 to 30 days, hydrochloride) was about 10 fold. For the same compound, the “Growth of human tumor xenographs” value (human tumor xenographs) was “inhibit” and the inhibition at 1 µM (AURKB (Aurora B)) was 82%.
